In brackets after ≈: the same amount, converted by molar mass. Where a name gives a salt, the structure may show the parent alone. Read-outs that look alike come from different tables or passages of the source.
Key:
CTX-M15 = CTX-M15 (Escherichia coli, UniProt Q9EXV5); test: In vitro enzyme inhibition assay (nitrocefin hydrolysis), CTX-M15; type: biochemical
Method: (§1) Compound dilution was performed in DMSO.

[1] = test system: NTBC091.1 (E. coli strain expressing KPC-2, TEM-1); test: Meropenem potentiation, broth micro-dilution MIC, strain NTBC091.1; type: cell-based; conditions: for MIC mero + 4 μg/mL inhibitor (banded): NTBC091.1, MIC of meropenem with 4 μg/mL of the labelled inhibitor, band; for MIC of meropenem + compound compared with meropenem + avibactam: NTBC091.1
Method: (§4) The experiments were carried out using the ‘broth micro-dilution method’ according to the protocols M07-A8 established by the Clinical Laboratory Standards Institute (CLSI). […] After incubation for 18-20 hours in a heating chamber at 37° C., the growth inhibition was evaluated by the absence of any bacterial development.
(§5) Compounds of the invention were tested at concentrations of 4 μg/mL.

[2] = test system: NTBC096.1 (K. pneumoniae strain expressing OXA-181 and SHV-11); test: Meropenem potentiation, broth micro-dilution MIC, strain NTBC096.1; type: cell-based
Method: as §4, §5

AmpC [3] = target: T1, AmpC (Enterobacter cloacae, UniProt P05364); conditions: read-out: Amp-C mean IC50 (banded); nitrocefin 100 μM, band
T1 sequence (P05364 21-381): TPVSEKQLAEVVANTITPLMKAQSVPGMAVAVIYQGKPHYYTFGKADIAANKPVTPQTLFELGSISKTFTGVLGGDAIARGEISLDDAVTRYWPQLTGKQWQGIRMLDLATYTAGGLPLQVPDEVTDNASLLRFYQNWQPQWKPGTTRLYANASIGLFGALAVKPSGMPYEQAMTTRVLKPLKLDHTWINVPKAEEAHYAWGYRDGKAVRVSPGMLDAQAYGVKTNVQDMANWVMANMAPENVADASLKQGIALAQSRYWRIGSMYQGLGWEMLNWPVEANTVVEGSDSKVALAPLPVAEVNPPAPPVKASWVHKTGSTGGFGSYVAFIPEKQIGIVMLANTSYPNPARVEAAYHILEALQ

[4] = test system: NTBC093 (E. cloacae strain expressing KPC-2, TEM-1); test: Meropenem potentiation, broth micro-dilution MIC, strain NTBC093
Method: as §4, §5

[5] = test system: NTBC189 (K. pneumoniae strain expressing TEM-OSBL(b), CTX-M-14, OXA-48(c)); test: Meropenem potentiation, broth micro-dilution MIC, strain NTBC189
Method: as §4, §5

KPC-2 = KPC-2 (Klebsiella pneumoniae, UniProt Q9F663); test: In vitro enzyme inhibition assay (nitrocefin hydrolysis), KPC-2; type: biochemical
KPC-2, sequence (Q9F663 25-293 limits assumed): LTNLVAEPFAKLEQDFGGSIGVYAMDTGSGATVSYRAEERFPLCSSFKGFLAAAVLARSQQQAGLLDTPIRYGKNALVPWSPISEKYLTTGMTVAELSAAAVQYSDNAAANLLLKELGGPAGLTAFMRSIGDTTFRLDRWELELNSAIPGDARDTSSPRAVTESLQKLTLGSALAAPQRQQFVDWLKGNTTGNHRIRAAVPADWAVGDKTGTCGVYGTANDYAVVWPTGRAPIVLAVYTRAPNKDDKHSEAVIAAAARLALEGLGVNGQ
Method: as §1

OXA-48 = OXA-48 (Klebsiella pneumoniae, UniProt Q6XEC0); test: In vitro enzyme inhibition assay (nitrocefin hydrolysis), OXA-48; type: biochemical
OXA-48, sequence (Q6XEC0 23-265 limits assumed): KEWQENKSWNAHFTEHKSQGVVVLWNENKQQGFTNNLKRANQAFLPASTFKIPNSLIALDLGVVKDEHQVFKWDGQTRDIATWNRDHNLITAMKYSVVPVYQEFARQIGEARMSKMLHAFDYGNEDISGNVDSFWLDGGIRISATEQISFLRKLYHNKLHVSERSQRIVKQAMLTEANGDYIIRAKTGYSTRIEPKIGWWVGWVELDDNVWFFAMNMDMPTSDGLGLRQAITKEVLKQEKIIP
Method: as §1

AmpC [6] = target: T1, AmpC; test: biochemical
TEM-1 = TEM-1 (Escherichia coli, UniProt P62593); test: In vitro enzyme inhibition assay (nitrocefin hydrolysis), TEM-1; type: biochemical; conditions: nitrocefin 100 μM, band; read-out: TEM-1 mean IC50 (banded)
TEM-1, sequence (P62593 24-286 limits assumed): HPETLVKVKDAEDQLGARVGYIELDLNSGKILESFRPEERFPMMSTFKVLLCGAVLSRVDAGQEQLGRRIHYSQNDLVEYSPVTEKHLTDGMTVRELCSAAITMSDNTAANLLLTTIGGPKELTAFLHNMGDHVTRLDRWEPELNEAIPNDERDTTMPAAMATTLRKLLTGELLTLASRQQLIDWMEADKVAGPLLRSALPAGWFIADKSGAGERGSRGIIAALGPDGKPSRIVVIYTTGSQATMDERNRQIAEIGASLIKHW
Method: as §1

[7] = test system: KPC-expressing clinical strain of Klebsiella pneumoniae (NR-48977); test: MIC against strain used in thigh model, NR-48977; type: cell-based
Excerpt: (§2) Compounds of the invention were further examined in animal efficacy models.

[8] = test system: OXA-expressing clinical strain of Klebsiella pneumoniae (AC00783); test: MIC against strain used in thigh model, AC00783; type: cell-based
Excerpt: as §2

[9] = test system: OXA-expressing clinical strain of Acinetobacter baumannii (AC00445); test: MIC against strain used in thigh model, AC00445; type: cell-based
Excerpt: as §2

[10] = test system: KPC-expressing clinical strain of Klebsiella pneumoniae (NR-48977); test: Mouse thigh infection efficacy model, NR-48977; type: in vivo; conditions: mice, IV at 1, 3, 5 and 7 hours post infection with constant dose of meropenem, 9 hours post infection
Method: as §2
(§3) Vehicle, meropenem alone or meropenem and a compound of the invention (Example 10) were administered by IV at 1, 3, 5 and 7 hours post infection. 9 hours post infection animals were sacrificed and the number of colony forming units (CFUs) was measured in order to quantify bacterial burden (colony forming units per gram thigh tissue, CFU/g).

[11] = test system: OXA-expressing clinical strain of Klebsiella pneumoniae (AC00783); test: Mouse thigh infection efficacy model, AC00783; type: in vivo; conditions: mice, IV at 1, 3, 5 and 7 hours post infection with constant dose of meropenem, 9 hours post infection
Method: as §2, §3

[12] = test system: OXA-expressing clinical strain of Acinetobacter baumannii (AC00445); test: Mouse thigh infection efficacy model, AC00445; type: in vivo; conditions: mice, IV at 1, 3, 5 and 7 hours post infection with constant dose of meropenem, 9 hours post infection
Method: as §2, §3

[13] = test system: panel of 48 A. baumannii strains (OXA positive clinical isolates); test: Cumulative MIC, panel of 48 A. baumannii strains (FIG. 3)
[14] = test system: clinical strains of KPC positive enterobacteriaceae; conditions: FIG. 2, meropenem + 4 μg/mL inhibitor
[15] = test system: larger panel of clinical strains of OXA positive enterobacteriaceae; test: Cumulative MIC, larger panel of clinical strains of OXA positive enterobacteriaceae (FIG. 1B); conditions: meropenem + 4 μg/mL inhibitor
[16] = test system: clinical strains of OXA positive enterobacteriaceae; test: Cumulative MIC, panel of clinical strains of OXA positive enterobacteriaceae (FIG. 1A); conditions: antibiotic alone or clinical combination
[17] = Klebsiella pneumoniae, read-out: MIC mero + 4 μg/mL inhibitor

CTX-M15, sequence (Q9EXV5 entry or part of it): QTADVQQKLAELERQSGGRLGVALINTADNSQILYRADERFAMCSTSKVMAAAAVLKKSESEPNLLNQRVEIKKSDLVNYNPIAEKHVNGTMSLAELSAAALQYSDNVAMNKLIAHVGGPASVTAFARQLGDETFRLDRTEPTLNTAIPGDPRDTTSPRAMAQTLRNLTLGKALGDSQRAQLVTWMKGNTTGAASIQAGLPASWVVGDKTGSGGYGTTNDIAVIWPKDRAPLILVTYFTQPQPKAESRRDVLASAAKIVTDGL

NC(=O)[C@@H]1CC[C@@H]2CN1C(=O)N2OS(=O)(=O)O [Avibactam, avibactam, reference compound]
IC50 (CTX-M15; nitrocefin 50 μM, band, read-out: CTX-M15 mean IC50 (banded)): < 5 nM
MIC mero + 4 μg/mL inhibitor (banded) [1]: A (1 μg/mL)
MIC mero + 4 μg/mL inhibitor (banded) ([2]; NTBC096.1, MIC of meropenem with 4 μg/mL of the labelled inhibitor, band): B (MIC=1 or 2 μg/mL)
IC50 (AmpC [3]): < 10 nM
MIC mero + 4 μg/mL inhibitor (banded) ([4]; NTBC093, MIC of meropenem with 4 μg/mL of the labelled inhibitor, band): A (1 μg/mL)
MIC mero + 4 μg/mL inhibitor ([4]; NTBC093, MIC of meropenem with 4 μg/mL of the labelled inhibitor, value): 0.03 µg/mL
MIC mero + 4 μg/mL inhibitor (banded) ([5]; NTBC189, MIC of meropenem with 4 μg/mL of the labelled inhibitor, band): A (1 μg/mL)

O=C1N2C[C@@H](CC[C@H]2C(F)(F)F)N1OS(=O)(=O)O [Example 1, Sodium (2S, 5R)-7-oxo-2-(trifluoromethyl)-1,6-diazabicyclo[3.2.1]octan-6-yl sulfate]
IC50 (KPC-2): < 10 nM
IC50 (OXA-48): < 20 nM
IC50 (CTX-M15): 5 to 20 nM
MIC of meropenem + compound compared with meropenem + avibactam [1]: lower
MIC mero + 4 μg/mL inhibitor (banded) [1]: (A) (1 μg/mL)
MIC [2, 17]: 4 µg/mL
MIC ([4]; Enterobacter cloacae, read-out: MIC mero + 4 μg/mL inhibitor): 0.06 µg/mL
MIC [5, 17]: 2 µg/mL

O=C1N2C[C@@H](CC[C@H]2C(Cl)Cl)N1OS(=O)(=O)O [Example 3, Sodium (2S,5R)-2-(dichloromethyl)-7-oxo-1,6-diazabicyclo[3.2.1]octan-6-yl sulfate]
IC50 (KPC-2): < 10 nM
IC50 (OXA-48): 100 to 200 nM
IC50 (CTX-M15): 20 to 100 nM
MIC mero + 4 μg/mL inhibitor (banded) [1]: (A) (1 μg/mL)
IC50 (AmpC [6]): 40 to 60 nM

O=C1N2C[C@@H](CC[C@H]2CF)N1OS(=O)(=O)[O-].[Na+] [Example 4, Sodium (2S, 5R)-2-(fluoromethyl)-7-oxo-1,6-diazabicyclo[3.2.1]octan-6-yl sulphate]
IC50 (KPC-2): > 10 nM
IC50 (OXA-48): 200 to 300 nM
IC50 (CTX-M15): 5 to 20 nM
MIC mero + 4 μg/mL inhibitor (banded) [1]: (A) (1 μg/mL)
IC50 (AmpC [6]): < 10 nM

CC(F)(F)[C@@H]1CC[C@@H]2CN1C(=O)N2OS(=O)(=O)[O-].[Na+] [Example 5, Sodium (2S, 5R)-2-(1,1-difluoroethyl)-7-oxo-1,6-diazabicyclo[3.2.1]octan-6-yl sulphate]
IC50 (KPC-2): > 10 nM
IC50 (OXA-48): 20 to 100 nM
IC50 (CTX-M15): 5 to 20 nM
MIC mero + 4 μg/mL inhibitor (banded) [1]: (A) (1 μg/mL)
IC50 (AmpC [6]): 40 to 60 nM

O=C1N2C[C@@H](CC[C@H]2CCl)N1OS(=O)(=O)[O-].[Na+] [Example 6, Sodium (2S, 5R)-2-(chloromethyl)-7-oxo-1,6-diazabicyclo[3.2.1]octan-6-yl sulphate]
IC50 (KPC-2): > 10 nM
IC50 (OXA-48): 200 to 300 nM
MIC mero + 4 μg/mL inhibitor (banded) [1]: (A) (1 μg/mL)
IC50 (AmpC [6]): 10 to 40 nM

O=C1N2C[C@@H](CC[C@H]2SC(F)(F)F)N1OS(=O)(=O)[O-].[Na+] [Example 7, Sodium (2R, 5R)-7-oxo-2-[(trifluoromethyl)sulfanyl]-1,6-diazabicyclo[3.2.1]octan-6-yl sulphate]
IC50 (KPC-2): > 10 nM
IC50 (OXA-48): 200 to 300 nM
MIC mero + 4 μg/mL inhibitor (banded) [1]: (A) (1 μg/mL)
IC50 (AmpC [6]): 40 to 60 nM

O=C1N2C[C@@H](CC[C@H]2COC(F)(F)F)N1OS(=O)(=O)[O-].[Na+] [Example 8, Sodium (2S, 5R)-7-oxo-2-[(trifluoromethoxy)methyl]-1,6-diazabicyclo[3.2.1]octan-6-yl sulphate]
IC50 (KPC-2): < 10 nM
IC50 (OXA-48): 200 to 300 nM
IC50 (CTX-M15): 100 to 200 nM
MIC mero + 4 μg/mL inhibitor (banded) [1]: (A) (1 μg/mL)
IC50 (AmpC [6]): 40 to 60 nM

O=C1N2C[C@@H](CC[C@H]2C(F)(F)c2nccs2)N1OS(=O)(=O)[O-].[Na+] [Example 9, Sodium (2S, 5R)-2-[difluoro(1,3-thiazol-2-yl)methyl]-7-oxo-1,6-diazabicyclo[3.2.1]octan-6-yl sulphate]
IC50 (KPC-2): < 10 nM
IC50 (OXA-48): 200 to 300 nM
IC50 (CTX-M15): 20 to 100 nM
MIC mero + 4 μg/mL inhibitor (banded) [1]: (A) (1 μg/mL)
IC50 (AmpC [6]): < 10 nM

O=C1N2C[C@@H](CC[C@H]2F)N1OS(=O)(=O)[O-].[Na+] [Example 10, Sodium (2R,5R)-2-fluoro-7-oxo-1,6-diazabicyclo[3.2.1]octan-6-yl sulfate]
IC50 (KPC-2): > 10 nM
IC50 (OXA-48): 200 to 300 nM
IC50 (TEM-1): < 3 nM
MIC of meropenem + compound compared with meropenem + avibactam [1]: lower
MIC mero + 4 μg/mL inhibitor (banded) [1]: (A) (1 μg/mL)
MIC of meropenem + compound compared with meropenem + avibactam ([2]; NTBC096.1): lower
MIC (Meropenem + inhibitor at 4 μg/mL) ([7]; NR-48977): 1 µg/mL
MIC (Meropenem + inhibitor at 4 μg/mL) [8]: 0.25 µg/mL
MIC (Meropenem + inhibitor at 4 μg/mL) ([9]; AC00445): 4 µg/mL
bacterial burden (colony forming units per gram thigh tissue) [10]: dose response
bacterial burden (colony forming units per gram thigh tissue) [11]: dose response
bacterial burden (colony forming units per gram thigh tissue) [12]: dose response
IC50 (AmpC [6]): 10 to 40 nM
% of the strains susceptible ([13]; FIG. 3, in the presence of 2 μg/mL of each inhibitor, inhibitor in combination with meropenem): around 50%
% of the strains susceptible ([13]; FIG. 3, in the presence of 16 μg/mL of each inhibitor, inhibitor in combination with meropenem): ~100%
MIC90 of meropenem with addition of 4 μg/mL of inhibitor ([13]; FIG. 3, meropenem + 4 μg/mL inhibitor): 8 µg/mL
MIC of meropenem + compound compared with meropenem + avibactam ([4]; NTBC093): similar
MIC of meropenem + compound compared with meropenem + avibactam ([5]; NTBC189): lower
MIC50 of meropenem with addition of 4 μg/mL of inhibitor [14]: 0.12 µg/mL
MIC50 of meropenem with addition of 4 μg/mL of inhibitor [15]: 0.12 µg/mL
MIC90 of meropenem with addition of 4 μg/mL of inhibitor [15]: 0.5 µg/mL

O=C1N2C[C@@H](CC[C@@H]2F)N1OS(=O)(=O)[O-].[Na+] [Example 11, Sodium (2S, 5R)-2-fluoro-7-oxo-1,6-diazabicyclo [3.2.1]octan-6-yl sulfate]
IC50 (KPC-2): > 10 nM
IC50 (OXA-48): > 300 nM
IC50 (TEM-1): > 10 nM
MIC mero + 4 μg/mL inhibitor (banded) [1]: (A) (1 μg/mL)
IC50 (AmpC [6]): > 60 nM

O=C1N2C[C@@H](CC[C@H]2Cl)N1OS(=O)(=O)[O-].[Na+] [Example 12, Sodium (2R,5R)-2-chloro-7-oxo-1,6-diazabicyclo[3.2.1]octan-6-yl sulfate]
IC50 (KPC-2): > 10 nM
IC50 (OXA-48): > 300 nM
IC50 (TEM-1): < 3 nM
MIC of meropenem + compound compared with meropenem + avibactam [1]: lower
MIC mero + 4 μg/mL inhibitor (banded) [1]: (A) (1 μg/mL)
IC50 (AmpC [6]): < 10 nM

C[C@@H](O)[C@H]1C(=O)N2C(C(=O)O)=C(S[C@@H]3CN[C@H](C(=O)N(C)C)C3)[C@H](C)[C@H]12 [meropenem, reference compound]
MIC ([7]; Klebsiella pneumoniae, read-out: MIC (meropenem alone)): 64 µg/mL (≈ 167 µM)
MIC ([9]; Acinetobacter baumannii, read-out: MIC (meropenem alone)): 64 µg/mL (≈ 167 µM)
% of the strains susceptible ([13]; FIG. 3, in the presence of 2 μg/mL of each inhibitor, antibiotic alone or clinical combination): 0%
fraction of strains susceptible at an MIC of 1 μg/mL [16]: 0%
